This is an account of results in patent publication US8546370B2, “Compounds and compositions as kinase inhibitors” (IRM LLC, priority 2008, dated 2013).

The target of experiment [1] is Ba/F3 cells transformed with Tel-KDR (Homo sapiens, UniProt P35968). As to conditions: read-out: IC50 in BaF3/Tel-KDR cellular assay. How it is done: (§1) Luciferase expressing Ba/F3 murine pro-B cells are transformed with Tel-Syk, Tel-Zap70 or Tel-KDR. Cells are maintained in RPMI/10% fetal calf serum (RPMI/FCS) supplemented with penicillin 50 μg/mL, streptomycin 50 μg/mL and L-glutamine 200 mM. Untransformed Ba/F3 cells are similarly maintained with the addition of murine recombinant IL3. Cells are dispensed into 384-well format plate at 5000 cell/well in 50 μL of culture medium. Compounds of the invention are dissolved and diluted in dimethylsufoxide (DMSO). Twelve points 1:3 serial dilutions are made into DMSO to create concentrations gradient ranging from 10 mM to 0.05 μM. Cells are added with 50 nL of diluted compounds and incubated for 48 hours in cell culture incubator. Luminiscent signal is measured following the addition of Bright Glo® (Promega) luciferase substrate. IC50 values are calculated by linear regression analysis of the percentage inhibition of each compound at 12 concentrations.
(§2) Compounds of the invention are tested for their antiproliferative effect on Ba/F3 cells expressing either Tel-TrkA, Tel-TrkB or Tel-TrkC and an additional panel of 34 selected diverse kinases activated by fusion to the dimerizing partners Bcr or Tel (Abl, AlK, BMX, EphA3, EphB2, FGFR2, FGFR3, FGFR4, FGR, FLT1, FLT3, FLT4, FMS, IGF1R, InsR, JAK1, JAK2, JAK3, KDR, Kit, Lck, Lyn, MER, MET, PDGFRb, RET, RON, Ros-1, Src, Syk, TIE2, TYK2, Tie1, ZAP70). The antiproliferative effect of these compounds on the different cell lines and on the non transformed cells were tested at 12 different concentrations of 3-fold serially diluted compounds in 384 well plates as described above (in media lacking IL3). The IC50 values of the compounds the different cell lines were determined from the dose response curves obtained as describe above.

Experiment [2] addresses Ba/F3 cells transformed with Tel-Syk (Homo sapiens, UniProt P43405). As to conditions: read-out: IC50 in BaF3/Tel-Syk cellular assay. The method, then: as §1, §2
The target in experiment [3] is Ba/F3 cells expressing Tel-FLT3 (Homo sapiens, UniProt P36888). The conditions noted are these: read-out: IC50 in BaF3/Tel-FLT3 cellular assay. How it is done:
as §2

In experiment [4] the target is Ba/F3 cells expressing Tel-FMS (Homo sapiens, UniProt P07333). The conditions noted are these: read-out: IC50 in BaF3/Tel-FMS cellular assay. How it is done:
as §2

Experiment [5] addresses Ba/F3 cells transformed with Tel c-Kit (Homo sapiens, UniProt P10721). As to conditions: read-out: IC50 in BaF3/Tel-KIT cellular assay. The method, then:
as §2

The target in experiment [6] is Ba/F3 cells transformed with human Tel-TrkA (Homo sapiens, UniProt P04629). As to conditions: read-out: IC50 in BaF3/Tel-TRKA cellular assay. How it is done: as §2
In a further experiment the target is Abl (Homo sapiens (Human), UniProt P00519). The experiment in a line: Caliper LabChip mobility-shift kinase assay, single point. It counts as biochemical. As to conditions: at a concentration of 5 μM. How it is done: (§3) In addition, compounds of Formula (I) were assessed for their ability to inhibit individual kinases utilizing Caliper Life Sciences' proprietary LabChip™ technology. A partial, non-limiting list of kinases includes: Syk, ZAP70, KDR, FMS, FLT3, c-Kit, RET, TrkA, TrkB, TrkC, IGR-1R, Alk and c-FMS kinases. The off-chip incubation mobility-shift kinase assay uses a microfluidic chip to measure the conversion of a fluorescent peptide substrate to a phosphorylated product. The reaction mixture, from a microtiter plate well, is introduced through a capillary sipper onto the chip, where the nonphosphorylated substrate and phosphorylated product are separated by electrophoresis and detected via laser induced fluorescence. […] The phosphorylated product migrates through the chip faster than the non-phosphorylated substrate, and signals from the two forms of the peptide appear as distinct peaks. Caliper's data analysis software (HTSWA) determines peak heights, from which the ratio of product to the peak sum P/(P+S) and percent (%) conversion is calculated. This value is used to compare compound wells to control wells present on the plate, and thereby determine the % inhibition values for the compound.
(§4) Generally, 12 μL of enzyme buffer containing purified kinase (various amount; various suppliers), 100 mM HEPES, pH 7.5, 1 mM DTT (Calbiochem, 2333153), 10 mM MgCl2 (Sigma, M-1028) or 10 mM MnCl2 (Sigma, M-1787) (assay specific), and 0.002% Brij-35 (Sigma, B4184) are added to each well. Compound and enzyme are allowed to pre-incubate for 15 minutes. 12 μL of peptide/ATP buffer containing 100 mM HEPES, pH 7.5, 1.5 μM fluorescein-labeled peptide (specific to kinase of interest), ATP (at KM apparent, Sigma, A9187), and 0.002% Brij-35 is then added to each well to initiate the reaction. The final concentration of DMSO in the well is 4%. Generally, reactions are incubated for 1 to 1.5 hours at room temperature to obtain adequate conversion of peptide to phosphorylated product in the linear range of the reaction. Reactions are terminated with the addition of 45 μL of Stop Buffer (containing 20 mM EDTA). Plates are then read on the LabChip 3000 using a 12-sipper LabChip. % conversion values and % inhibition values are obtained as described and IC50 curves of compounds are generated using GraphPad Prism Version 4 or 5.01, or XLfit Version 4.3.2. When using GraphPad Prism, a nonlinear curve fit using the sigmoidal dose response—variable slope fit was used to graph IC50 curves and determine IC50 values and hillslopes. When using XLfit, Fit Model 205 (4-Parameter Logistic Model) is used to generate and fit the IC50 curve.

The next experiment concerns the target CHK2 (Homo sapiens (Human), UniProt O96017). The experiment is described as above. It counts as biochemical. As to conditions: at a concentration of 5 μM. The method, then:
as §3, §4

A further experiment concerns the target FLT3 (Homo sapiens (Human), UniProt P36888). The description is as above. It counts as biochemical. The conditions noted are these: at a concentration of 5 μM. The method, then: as §3, §4
In another experiment the target is FMS (Homo sapiens (Human), UniProt P07333). Described as above. It counts as biochemical. The conditions noted are these: at a concentration of 5 μM. The method, then:
as §3, §4

The next experiment deals with JAK2 (Homo sapiens (Human), UniProt O60674). Described as above. It counts as biochemical. As to conditions: at a concentration of 5 μM. How it is done: as §3, §4
The next experiment has as its target KDR (Homo sapiens (Human), UniProt P35968). The description is as above. In kind it is biochemical. As to conditions: at a concentration of 5 μM. How it is done:
as §3, §4

The target of the next experiment is RET (Homo sapiens (Human), UniProt P07949). The experiment is described as above. In kind it is biochemical. The conditions noted are these: at a concentration of 5 μM. How it is done: as §3, §4
The next experiment concerns the target TRKA (Homo sapiens (Human), UniProt P04629). The experiment is described as above. It counts as biochemical. The conditions noted are these: at a concentration of 5 μM. How it is done:
as §3, §4

Chain of Ba/F3 cells expressing Tel-FMS (P07333 20-972 limits assumed, change not shown): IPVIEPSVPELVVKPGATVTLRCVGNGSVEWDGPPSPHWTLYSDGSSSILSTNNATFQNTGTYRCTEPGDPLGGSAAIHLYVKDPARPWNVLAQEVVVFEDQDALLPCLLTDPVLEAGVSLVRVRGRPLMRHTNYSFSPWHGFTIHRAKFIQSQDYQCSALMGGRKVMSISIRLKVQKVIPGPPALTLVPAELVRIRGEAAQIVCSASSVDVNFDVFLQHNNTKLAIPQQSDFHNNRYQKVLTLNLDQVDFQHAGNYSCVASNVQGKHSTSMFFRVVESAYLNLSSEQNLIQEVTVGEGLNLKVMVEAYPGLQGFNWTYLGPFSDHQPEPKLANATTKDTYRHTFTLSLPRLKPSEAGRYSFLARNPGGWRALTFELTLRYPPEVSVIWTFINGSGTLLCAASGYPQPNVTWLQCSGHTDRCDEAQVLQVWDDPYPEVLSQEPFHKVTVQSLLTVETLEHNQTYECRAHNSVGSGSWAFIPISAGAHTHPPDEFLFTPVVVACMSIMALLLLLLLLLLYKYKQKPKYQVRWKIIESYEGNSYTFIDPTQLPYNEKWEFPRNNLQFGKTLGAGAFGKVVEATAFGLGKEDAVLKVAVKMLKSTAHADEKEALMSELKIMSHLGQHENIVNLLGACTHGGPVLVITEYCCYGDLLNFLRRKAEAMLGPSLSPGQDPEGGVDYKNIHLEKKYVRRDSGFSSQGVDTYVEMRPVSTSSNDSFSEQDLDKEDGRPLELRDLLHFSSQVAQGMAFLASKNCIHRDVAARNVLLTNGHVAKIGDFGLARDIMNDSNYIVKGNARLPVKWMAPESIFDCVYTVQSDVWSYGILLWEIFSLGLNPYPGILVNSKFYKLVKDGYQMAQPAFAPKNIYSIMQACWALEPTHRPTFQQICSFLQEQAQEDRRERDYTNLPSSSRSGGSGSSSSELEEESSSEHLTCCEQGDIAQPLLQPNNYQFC
Chain of Ba/F3 cells transformed with Tel-KDR (P35968 20-1356 limits assumed, change not shown): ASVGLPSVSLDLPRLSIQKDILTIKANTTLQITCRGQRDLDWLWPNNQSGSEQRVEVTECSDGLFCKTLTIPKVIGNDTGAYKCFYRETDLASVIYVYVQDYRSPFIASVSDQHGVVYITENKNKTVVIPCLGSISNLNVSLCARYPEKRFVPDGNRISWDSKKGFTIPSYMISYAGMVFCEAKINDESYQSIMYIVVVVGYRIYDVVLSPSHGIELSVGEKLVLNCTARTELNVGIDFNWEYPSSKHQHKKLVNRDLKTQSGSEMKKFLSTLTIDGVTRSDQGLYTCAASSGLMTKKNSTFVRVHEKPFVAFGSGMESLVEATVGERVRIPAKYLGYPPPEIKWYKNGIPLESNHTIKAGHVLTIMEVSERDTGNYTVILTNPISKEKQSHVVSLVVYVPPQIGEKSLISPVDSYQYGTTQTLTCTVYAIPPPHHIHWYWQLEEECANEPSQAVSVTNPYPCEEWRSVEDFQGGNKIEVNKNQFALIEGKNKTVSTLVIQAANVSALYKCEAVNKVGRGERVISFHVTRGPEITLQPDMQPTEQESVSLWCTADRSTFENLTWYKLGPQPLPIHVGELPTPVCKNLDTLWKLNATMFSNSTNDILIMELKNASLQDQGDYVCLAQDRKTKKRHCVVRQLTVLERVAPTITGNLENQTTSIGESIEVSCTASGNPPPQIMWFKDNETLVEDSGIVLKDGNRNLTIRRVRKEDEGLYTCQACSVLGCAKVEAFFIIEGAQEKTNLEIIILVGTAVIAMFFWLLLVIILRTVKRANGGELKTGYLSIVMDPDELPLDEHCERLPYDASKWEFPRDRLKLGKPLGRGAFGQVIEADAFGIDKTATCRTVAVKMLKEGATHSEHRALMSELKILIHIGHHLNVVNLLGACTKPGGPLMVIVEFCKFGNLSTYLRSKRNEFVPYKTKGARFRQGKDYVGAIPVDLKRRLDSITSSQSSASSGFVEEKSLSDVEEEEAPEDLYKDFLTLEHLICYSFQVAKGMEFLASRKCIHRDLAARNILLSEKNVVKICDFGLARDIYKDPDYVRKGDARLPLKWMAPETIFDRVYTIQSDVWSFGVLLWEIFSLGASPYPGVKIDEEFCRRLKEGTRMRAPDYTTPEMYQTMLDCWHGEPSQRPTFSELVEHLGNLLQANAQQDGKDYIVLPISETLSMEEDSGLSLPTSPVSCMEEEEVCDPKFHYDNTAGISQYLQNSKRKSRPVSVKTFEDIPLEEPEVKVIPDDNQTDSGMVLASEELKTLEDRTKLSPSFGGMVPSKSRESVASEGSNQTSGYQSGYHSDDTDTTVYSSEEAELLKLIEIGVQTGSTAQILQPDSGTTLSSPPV
Chain of Ba/F3 cells transformed with human Tel-TrkA (P04629 33-796 limits assumed, change not shown): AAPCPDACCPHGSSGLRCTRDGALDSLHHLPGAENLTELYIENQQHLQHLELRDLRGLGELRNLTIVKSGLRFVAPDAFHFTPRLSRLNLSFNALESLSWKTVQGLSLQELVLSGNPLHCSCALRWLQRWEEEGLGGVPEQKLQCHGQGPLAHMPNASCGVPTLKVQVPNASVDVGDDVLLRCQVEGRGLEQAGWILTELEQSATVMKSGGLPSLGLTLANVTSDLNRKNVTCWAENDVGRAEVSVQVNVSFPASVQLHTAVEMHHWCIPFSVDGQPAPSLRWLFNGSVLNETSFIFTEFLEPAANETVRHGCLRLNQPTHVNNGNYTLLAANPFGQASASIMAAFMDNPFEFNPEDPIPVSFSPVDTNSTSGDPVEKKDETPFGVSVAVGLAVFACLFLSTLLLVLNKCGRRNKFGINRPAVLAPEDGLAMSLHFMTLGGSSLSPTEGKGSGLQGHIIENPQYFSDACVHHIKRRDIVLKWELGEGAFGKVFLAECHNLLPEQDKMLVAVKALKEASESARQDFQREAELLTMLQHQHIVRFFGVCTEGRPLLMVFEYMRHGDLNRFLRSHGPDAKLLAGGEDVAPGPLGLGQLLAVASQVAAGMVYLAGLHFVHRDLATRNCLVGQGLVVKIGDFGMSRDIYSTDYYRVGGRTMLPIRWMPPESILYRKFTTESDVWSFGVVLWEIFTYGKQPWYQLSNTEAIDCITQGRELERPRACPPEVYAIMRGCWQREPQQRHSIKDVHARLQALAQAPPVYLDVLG
Chain of Ba/F3 cells transformed with Tel c-Kit (P10721 26-976 limits assumed, change not shown): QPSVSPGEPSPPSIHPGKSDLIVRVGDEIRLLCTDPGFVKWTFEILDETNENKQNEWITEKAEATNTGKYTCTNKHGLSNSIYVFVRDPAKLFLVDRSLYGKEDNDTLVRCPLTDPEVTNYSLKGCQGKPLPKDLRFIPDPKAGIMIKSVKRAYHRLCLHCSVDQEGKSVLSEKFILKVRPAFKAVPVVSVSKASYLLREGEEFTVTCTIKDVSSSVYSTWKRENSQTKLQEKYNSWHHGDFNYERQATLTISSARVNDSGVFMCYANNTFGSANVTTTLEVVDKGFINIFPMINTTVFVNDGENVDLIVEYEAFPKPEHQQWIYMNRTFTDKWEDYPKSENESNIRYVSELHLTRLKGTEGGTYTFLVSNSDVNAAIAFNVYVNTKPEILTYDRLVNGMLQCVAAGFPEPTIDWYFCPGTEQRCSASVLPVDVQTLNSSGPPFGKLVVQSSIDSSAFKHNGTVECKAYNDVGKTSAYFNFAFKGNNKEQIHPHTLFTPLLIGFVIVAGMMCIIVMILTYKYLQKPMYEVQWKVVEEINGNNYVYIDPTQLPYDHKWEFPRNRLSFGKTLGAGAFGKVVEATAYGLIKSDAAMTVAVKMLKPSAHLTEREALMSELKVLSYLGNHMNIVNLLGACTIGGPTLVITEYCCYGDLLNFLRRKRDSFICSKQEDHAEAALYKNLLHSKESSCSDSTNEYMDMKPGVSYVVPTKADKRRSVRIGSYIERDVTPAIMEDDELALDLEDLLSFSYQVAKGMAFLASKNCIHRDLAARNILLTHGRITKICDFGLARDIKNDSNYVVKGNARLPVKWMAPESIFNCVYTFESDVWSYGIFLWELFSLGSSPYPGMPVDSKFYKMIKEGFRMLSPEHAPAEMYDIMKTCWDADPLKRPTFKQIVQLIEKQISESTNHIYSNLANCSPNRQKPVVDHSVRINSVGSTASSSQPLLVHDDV
Chain of FLT3 (P36888 27-993, species assumed): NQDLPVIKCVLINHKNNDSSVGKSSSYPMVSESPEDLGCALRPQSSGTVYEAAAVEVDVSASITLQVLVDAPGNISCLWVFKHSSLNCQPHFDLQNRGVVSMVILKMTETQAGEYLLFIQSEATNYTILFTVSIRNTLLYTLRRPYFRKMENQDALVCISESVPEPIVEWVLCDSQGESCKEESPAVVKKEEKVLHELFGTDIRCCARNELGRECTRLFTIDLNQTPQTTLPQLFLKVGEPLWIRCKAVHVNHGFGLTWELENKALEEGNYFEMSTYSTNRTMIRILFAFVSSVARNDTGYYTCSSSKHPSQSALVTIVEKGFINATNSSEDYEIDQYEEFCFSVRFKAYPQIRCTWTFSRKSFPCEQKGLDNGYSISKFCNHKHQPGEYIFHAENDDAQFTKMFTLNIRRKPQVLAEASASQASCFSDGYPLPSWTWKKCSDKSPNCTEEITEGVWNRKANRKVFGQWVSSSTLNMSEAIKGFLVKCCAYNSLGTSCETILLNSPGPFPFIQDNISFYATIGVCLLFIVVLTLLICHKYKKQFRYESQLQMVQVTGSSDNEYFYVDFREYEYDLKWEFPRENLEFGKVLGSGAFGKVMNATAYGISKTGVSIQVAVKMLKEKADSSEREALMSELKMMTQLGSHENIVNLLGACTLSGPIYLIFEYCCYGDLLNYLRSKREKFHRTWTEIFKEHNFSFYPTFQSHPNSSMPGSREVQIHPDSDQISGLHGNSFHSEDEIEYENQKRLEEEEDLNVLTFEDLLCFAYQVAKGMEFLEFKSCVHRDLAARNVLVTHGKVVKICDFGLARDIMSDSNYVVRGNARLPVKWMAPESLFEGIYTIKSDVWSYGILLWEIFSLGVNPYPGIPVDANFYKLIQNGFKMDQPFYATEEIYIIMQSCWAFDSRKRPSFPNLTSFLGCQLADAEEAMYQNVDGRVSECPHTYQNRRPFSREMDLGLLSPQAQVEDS
Chain of Ba/F3 cells expressing Tel-FLT3 (P36888 27-993 limits assumed, change not shown): as the sequence (P36888 27-993, species assumed) above
Chain of FMS (P07333 20-972, species assumed): as the sequence (P07333 20-972 limits assumed, change not shown) above
Chain of KDR (P35968 20-1356, species assumed): as the sequence (P35968 20-1356 limits assumed, change not shown) above

As to `CCN1CCN(c2cc3cc[nH]c(=O)c3c(Nc3ccc(N4CCOCC4)cc3)n2)CC1` [No 83, 8-(4-morpholinophenylamino)-6-(4-ethylpiperazin-1-yl)-2,7-naphthyridin-1(2H)-one], the IC50 amounted to 5000 nM in [1]; 120 nM in [2]; 530 nM in [3]; 500 nM in experiment [4]; 1220 nM in [5]; 490 nM in [6].

In general, inhibition refers to how much of the control response was suppressed. As to `O=c1[nH]ccc2cc(-c3ccccc3)nc(Nc3ccc(N4CCOCC4)cc3)c12` [No 11, 8-(4-morpholinophenylamino)-6-phenyl-2,7-naphthyridin-1(2H)-one], the IC50 came to 270 nM in experiment [1]; 150 nM in experiment [2]; 20 nM in experiment [4]; 20 nM in experiment [5]; 70 nM in experiment [6]. Further, the inhibition at 5 µM at Abl turned out to be 100%; on CHK2 it was 94%; at FLT3 it was 100%; on FMS, 84%; at JAK2, 96%; at KDR, 96%. In addition, the values for the inhibition at 5 µM on RET and on TRKA were 99% and 74%, respectively.
